Experiment [1] deals with T1, Polo-like kinase 1 (PLK1) (Homo sapiens, UniProt P53350). The experiment can be described thus: TR-FRET kinase-activity assay, […] ATP. Details: kinase domain, residues 33–345, PLK1^WT. In kind it is biochemical.
In experiment [2] the target is T1, Polo-like kinase 1 (PLK1). As to the kind of experiment: (soak, […] Å); IC50 by TR-FRET kinase assay at […] ATP. The experiment is classed as biochemical. Details: kinase domain, residues 33–345 (Ala33–Lys345), PLK1^WT; with DARPin 3H10 (crystal structure only). On the technique in general: In TR-FRET formats the signal depends on donor and acceptor labels being close together.

Molecules are shown by their SMILES.

Drawing on article PMC12809504, “Polo-like kinase 1–inhibitor co-complex structures via the surface-entropy reduction approach and a DARPin-assisted approach” (Acta Crystallographica Section D: Structural Biology, 2025), this text covers IC50 for 2 compounds.

T1 sequence (P53350 33-345): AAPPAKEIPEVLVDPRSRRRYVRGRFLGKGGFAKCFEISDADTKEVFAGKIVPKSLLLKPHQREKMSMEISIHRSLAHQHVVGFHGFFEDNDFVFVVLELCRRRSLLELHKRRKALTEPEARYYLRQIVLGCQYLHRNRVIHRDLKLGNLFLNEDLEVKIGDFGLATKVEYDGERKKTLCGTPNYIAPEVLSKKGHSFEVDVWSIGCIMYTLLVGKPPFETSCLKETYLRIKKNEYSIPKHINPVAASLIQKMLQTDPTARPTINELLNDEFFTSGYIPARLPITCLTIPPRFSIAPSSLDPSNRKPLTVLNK

Take `CCn1c(=C(C#N)C(=O)NCC(F)(F)F)sc(=CNc2cccc(CCN3CCCC3)c2)c1=O` [ZK-Thiazolidinone]: in experiment [1], the IC50 was found to be 178 ± 52.6 nM. On to `CCn1c(=O)c(=CNc2ccnc(N(C)C3CCN(C)CC3)c2)s/c1=C(/C#N)C(=O)NCC(F)(F)F` [compound 1, (2Z)-2-cyano-2-{3-ethyl-5-[({2-[methyl(1-methylpiperidin-4-yl)amino]pyridin-4-yl}amino)methylidene]-4-oxo-1,3-thiazolidin-2-ylidene}-N-(2,2,2-trifluoroethyl)acetamide], for which the IC50 in experiment [2] was 3.6 ± 2.3 nM.

One may read the IC50 as the concentration needed to halve the response being measured. A low value points to greater potency in that assay.
